According to patent publication US9707200B2, “Metabolism-improving agent comprising rare fatty acid” (KYOTO UNIVERSITY, priority 2012, dated 2017):

Experiments:
PPARα = target: T1, PPARα (Homo sapiens, UniProt Q07869); assay: PPARα ligand activity, GAL4-PPARα reporter luciferase assay in CV-1 cells; format: cell-based; details: 24 hr incubation, KetoA and HYA each at 30 μM, other fatty acids by a similar method
T1 construct: expressed in transfected cells; host or cells: CV-1 (African green monkey kidney)
T1 sequence (Q07869 239-466 limits assumed): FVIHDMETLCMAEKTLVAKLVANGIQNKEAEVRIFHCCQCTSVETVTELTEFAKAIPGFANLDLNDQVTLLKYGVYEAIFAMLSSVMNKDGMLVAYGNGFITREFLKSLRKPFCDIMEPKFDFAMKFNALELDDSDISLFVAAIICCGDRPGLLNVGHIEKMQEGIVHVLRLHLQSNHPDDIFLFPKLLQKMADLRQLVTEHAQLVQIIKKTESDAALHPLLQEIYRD
Protocol: (§1) To evaluate the function of oxo fatty acid and the like, PPARα, γ-activating action was measured first. The measurement was performed in reference to Nobuyuki Takahashi et al., FEES Letters 514 (2002) p. 315-322, “Dual action of isoprenols from herbal medicines on both PPARgamma and PPARalpha in 3T3-L1 adipocytes and HepG2 hepatocytes.”, the section of Materials and Methods “Reporter plasmids and luciferase assays”. To be specific, a plasmid containing DNA encoding a fused protein of PPARα, γ ligand binding region and GAL4 DNA binding region (pM-hPPARα or pM-hPPARγ), a reporter plasmid containing GAL4 binding DNA sequence linked to luciferase (p4xUASg-tk-luc), and internal control (pRL-CMV) to standardize transfection efficiency were introduced into CV-1 cell derived from the kidney of African green monkey. The ligand described below was added to the cells and, after incubation for 24 hr, luciferase activity was measured. As a ligand, KetoA and HYA were each added at 30 μM.
(§2) The concentration of the sample was adjusted with ethanol. Ethanol was used as a negative control, […], and GW7647 (10 nM) and Troglitazone (5 μM) were used as […].

LXR = target: T2, LXR (Homo sapiens, UniProt Q13133); assay: Antagonizing action on LXR by luciferase assay; format: cell-based; details: overall finding from SREBP-1c, SREBP-1, SCD-1, FAS, ACC1, 2, triacylglycerol and LXR luciferase measurements in HepG2 cells
T2 construct: expressed in transfected cells; host or cells: HepG2 (human liver cancer-derived)
T2 sequence (Q13133 1-447): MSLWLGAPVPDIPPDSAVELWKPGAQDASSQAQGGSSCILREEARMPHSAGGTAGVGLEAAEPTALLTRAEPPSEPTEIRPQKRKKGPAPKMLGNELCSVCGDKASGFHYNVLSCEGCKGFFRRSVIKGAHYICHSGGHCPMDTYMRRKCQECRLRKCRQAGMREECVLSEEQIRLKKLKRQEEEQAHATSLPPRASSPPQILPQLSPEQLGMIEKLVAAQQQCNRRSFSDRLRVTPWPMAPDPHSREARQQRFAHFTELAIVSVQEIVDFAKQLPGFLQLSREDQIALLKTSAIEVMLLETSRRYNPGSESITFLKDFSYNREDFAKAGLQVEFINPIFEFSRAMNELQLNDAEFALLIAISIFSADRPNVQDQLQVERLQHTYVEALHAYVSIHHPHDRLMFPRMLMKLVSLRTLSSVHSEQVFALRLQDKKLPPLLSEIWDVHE
Protocol: In addition, the protein expression level of immature and mature SREBP-1c was measured. Cells treated as mentioned above were dispersed in buffer A (250 mM sucrose, 10 mM HEPES-KOH, 10 mM KCl, 1.5 mM MgCl2, 1 mM EDTA-Na, 1 mM EGTA-Na, pH 7.6) containing a protease inhibitor, passed 20 times through a 23 gauge injection needle, and centrifuged (1,000×g, 4° C., 5 min) to separate into supernatant 1 and precipitate 1. The precipitate 1 was re-dissolved in buffer B (20 mM HEPES-KOH, 0.42 M NaCl, 2.5% glycerol, 1.5 mM MgCl2, 1 mM EDTA-Na, 1 mM EGTA-Na, pH 7.6), and centrifuged (10^5×g, 4° C., 15 min). The obtained supernatant 2 was used as a nuclear fraction (including mature form). The supernatant 1 was further centrifuged (10^5×g, 4° C., 15 min), and the obtained precipitate 2 was dissolved in cell lysate (10 mM Tris-HCl, 100 mM NaCl, 1% SDS, 1 mM EDTA-Na, 1 mM EGTA-Na) and used as a membrane fraction (including immature form). Using these as samples, measurement was performed by Western blot method using anti-SREBP-1 polyclonal antibody (Santa Cruz). Using Dual luciferase system (Promega), antagonizing action on LXR was evaluated by luciferase assay. p3xIR1-tk-Luc, pCMX-hLXRa, pRL-CMX were introduced into HepG2 cell. After culture in a 0.1% BSA-containing serum-free medium containing various fatty acids and T0901317 for 24 hr, the luciferase activity was measured.

PPARγ = target: T3, PPARγ (Homo sapiens, UniProt P37231); assay: PPARγ ligand activity, GAL4-PPARγ reporter luciferase assay in CV-1 cells; format: cell-based; details: 24 hr incubation, KetoA and HYA each at 30 μM, other fatty acids by a similar method
T3 construct: expressed in transfected cells; host or cells: CV-1 (African green monkey kidney)
T3 sequence (P37231 238-503 limits assumed): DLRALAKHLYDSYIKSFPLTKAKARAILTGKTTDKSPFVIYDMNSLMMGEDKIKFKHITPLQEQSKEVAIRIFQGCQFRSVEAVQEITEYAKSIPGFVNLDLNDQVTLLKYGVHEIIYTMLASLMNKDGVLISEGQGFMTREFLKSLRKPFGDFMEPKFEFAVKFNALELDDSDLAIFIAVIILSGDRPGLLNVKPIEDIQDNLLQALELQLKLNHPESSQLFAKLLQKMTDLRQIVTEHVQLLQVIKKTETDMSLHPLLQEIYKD
Protocol: as §1, §2

HepG2 cells [1] = assay: Intracellular triacylglycerol accumulation by LXR agonist; format: cell-based, human; details: 10 nM T0901317 alone, 24 hr
Protocol: HepG2 cells (2.0×10^5 cells/mL) were cultured in DMEM medium containing 10% FES for 24 hr, and the medium was exchanged with 0.1% BSA-containing DMEM medium containing 10 nM LXR agonist T0901317 (Cayman Chemicals) and 60 μM various fatty acid. After culture for 24 hr, the cells were recovered, and total RNA was extracted using Sepasol reagent (Nacalai Tesque). After DNase treatment, reverse transcription was performed using SuperScriptII (Invitrogen) to give a cDNA solution. Using SYBR Green Mix (Bio-Rad, Richmond, Calif.) and gene-specific primer (Table 1), real-time PCR was performed as follows.
1. Reaction at 96° C., 15 min, 2. reaction at 96° C., 15 sec, 3. reaction at 60° C. for 30 sec, 4. measurement of fluorescence, 5. 2-4 were repeated 40 times, 6. the melting curve was measured from 65° C. to 95° C. at 0.4° C. intervals. As the internal standard, 18S rRNA was used. The genes involved in the fatty acid synthesis as measured were Sterol regulatory element binding protein-1c (SREBP-1c), Stearoyl coenzyme A desaturase-1 (SCD-1), Fatty acid synthase (FAS), and Acetyl CoA carboxylase-1 and -2 (ACC-1, 2). As for the amount of accumulated intracellular TG, the lipid was extracted with chloroform-methanol, and quantified by triglyceride-′E Test Wako (Wako Pure Chemical Industries, Ltd.).

HepG2 cells [2] = assay: Effect on LXR agonist-induced expression of fatty acid synthesis genes, real-time PCR; format: cell-based, human; details: 10 nM T0901317 alone, 24 hr

Row | Structure (SMILES) | PPARα agonist activity (relative luciferase activity) (PPARα) | lipid synthesis suppressive action by the antagonizing action on LXR (LXR) | PPARγ agonist activity (relative luciferase activity) (PPARγ) | intracellular triacylglycerol level (HepG2 cells [1]) | expression of SREBP-1c mRNA (HepG2 cells [2])
1 | CCCCCCCCC(O)CCCCCCCCC(=O)O (stereo not shown) [HYB, 10-hydroxyoctadecanoic acid] | PPARα agonist activity | lipid synthesis suppressive action |  |  | 
2 | CCCCCCCCC(=O)CCCCCCCCC(=O)O [KetoB, 10-oxooctadecanoic acid] | PPARα agonist activity |  |  |  | 
3 | CCCCCC/C=C/C(=O)CCCCCCCCC(=O)O [KetoC, 10-oxo-trans-11-octadecenoic acid] | PPARα and γ agonist activity |  | PPARα and γ agonist activity |  | 
4 | CCCCCC[C@@H](O)C/C=C\CCCCCCCC(=O)O [RA, ricinoleic acid] | PPARα agonist activity | lipid synthesis suppressive action |  |  | 
5 | O=S(=O)(c1ccccc1)N(CC(F)(F)F)c1ccc(C(O)(C(F)(F)F)C(F)(F)F)cc1 [T0901317, reference compound] |  |  |  | increased | about 7 fold
6 | CCCCCCC(O)CC(O)CCCCCCCCC(=O)O (stereo not shown) [rHYA, 10,12-dihydroxyoctadecanoic acid] | PPARα agonist activity |  |  |  | 
7 | CCCCCCC(O)CCCCCCCCCCC(=O)O (stereo not shown) [rHYB, 12-hydroxyoctadecanoic acid] | PPARα agonist activity | lipid synthesis suppressive action |  |  | 
8 | CCCCCCC(=O)CCCCCCCCCCC(=O)O [rKetoB, 12-oxooctadecanoic acid] | PPARα agonist activity | lipid synthesis suppressive action |  |  | 
9 | CC/C=C\C/C=C\CC(O)CCCCCCCCC(=O)O (stereo not drawn) [αHYA, 10-hydroxy-cis-12,cis-15-octadecadienoic acid] | PPARα agonist activity |  |  |  | 
10 | CC/C=C\C/C=C\CC(=O)CCCCCCCCC(=O)O [αKetoA, 10-oxo-cis-12,cis-15-octadecadienoic acid] |  | lipid synthesis suppressive action | PPARγ agonist activity |  | 
11 | CC/C=C\CC/C=C/C(=O)CCCCCCCCC(=O)O [αKetoC, 10-oxo-trans-11,cis-15-octadecadienoic acid] | PPARα and γ agonist activity |  | PPARα and γ agonist activity |  | 
12 | CCCCC/C=C\CC(O)CC/C=C\CCCCC(=O)O (stereo not drawn) [γHYA, 10-hydroxy-cis-6,cis-12-octadecadienoic acid] | PPARα agonist activity | lipid synthesis suppressive action |  |  | 
13 | CCCCC/C=C\CC(=O)CC/C=C\CCCCC(=O)O [γKetoA, 10-oxo-cis-6,cis-12-octadecadienoic acid] |  | lipid synthesis suppressive action | PPARγ agonist activity |  | 
14 | CCCCCC/C=C/C(=O)CC/C=C\CCCCC(=O)O [γKetoC, 10-oxo-cis-6,trans-11-octadecadienoic acid] | PPARα and γ agonist activity |  | PPARα and γ agonist activity |  | 
